Earlier results in article PMC4630399, “Charge-Based Inhibitors of Amylin Fibrillization and Toxicity” (Journal of Diabetes Research, 2015).
Entries after “also recorded” stand apart in the source; their conditions may differ. No end group written: not given here.

What was measured:
[1] = system: WT-amylin fibrillization; conditions: added in trans; cited from earlier work
From the text: In type 2 diabetes, the positively charged 37-residue hormone amylin misfolds into cationic fibrils which have been implicated in the destruction of the pancreatic β-cells that make insulin and amylin, thus contributing to pathology. Amylin is a particularly favorable system for investigating the roles of charges in fibrillization, since the core of the intermolecular β-sheet fibril structure has only one pH-titratable group, His18 [9]. The histidine acts as an electrostatic switch, inhibiting fibrillization in its charged state at acidic pH and favoring fibrillization in its uncharged ... || An IC50 analysis of the inhibition data was performed to obtain quantitative information (Figure 5). The Arg-1 concentration-dependence for the inhibition of WT-amylin fibril elongation rates gives an IC50 value of 0.6 ± 0.5 μM. For Arg-2 and Mem-T, the IC50 values are ~10 μM (Figure 5(a)). In addition to effecting elongation rates, Arg-2 increases the lag times for WT-amylin fibrillization with an IC50 of ~0.1 μM. […] Moreover, addition of a single charged lysine residue ...

[2] = parameters: method as in 2 sources, ref 21 = [21]; PMID 23016872; doi:10.1021/bi300574r; 21 Marek P. J. Patsalo V. Green D. F. Raleigh D. P. Ionic strength effects on amyloid formation by amylin are a complicated interplay among debye screening, ion selectivity, and hofmeister effects Bio ||| ref 7 = [7]; PMID 22206987; doi:10.1016/j.jmb.2011.12.032; 7 Cao P. Tu L.-H. Abedini A. Sensitivity of amyloid formation by human islet amyloid polypeptide to mutations at residue 20 Journal of Molecular Biology 2012 421 2-3 282 295 10.1016/j.jmb.2011.12.032; conditions: compared to WT-amylin; cited from earlier work
From the text: In type 2 diabetes, the positively charged 37-residue hormone amylin misfolds into cationic fibrils which have been implicated in the destruction of the pancreatic β-cells that make insulin and amylin, thus contributing to pathology. Amylin is a particularly favorable system for investigating the roles of charges in fibrillization, since the core of the intermolecular β-sheet fibril structure has only one pH-titratable group, His18 [9].

## S20K: amylin with the S20K mutation (KCNTATCATQRLANFLVHSKNNFGAILSSTNVGSNTY; not fully specified (C-terminus); ends and bridges not checked; UniProt P10997 34-70, looked up, variant S20K)
[1]
  inhibition of WT-amylin fibrillization: inhibit fibrillization of the WT-amylin peptide; also recorded: inhibits fibrillization of WT-amylin when added in trans
[2]
  fibrillization of mutant amylin: much slower fibrillization; also recorded: fibrillizes much more slowly
